Laboratory results taken from ChEMBL document CHEMBL1142764, “Anti-HIV properties of cationic fullerene derivatives” (Bioorg Med Chem Lett, 2005).

Assays:
[1] = system: CCRF-CEM; assay: Cytostatic activity against CEM cell culture; type: functional; conditions: Homo sapiens
[2] = system: Human immunodeficiency virus 1; assay: Effective concentration against HIV-1; type: functional, organism-based
[3] = system: Human immunodeficiency virus 2; assay: Effective concentration against HIV-2; type: functional, organism-based

Row | Structure (SMILES) | CC50 [1] [µM] | EC50 [2] [nM] | EC50 [3] [nM]
1 | CC12C[N+](C)(C)CC34C5c6cc7c8c9c6-c6c5c5c%10c%11c6C6c%12c%13c%14c%15c%16c%17c%18c(c%19c%20c%21c%22c%23c%24c(c%10c%10c(c%12%11)c%14c%11c%10c%24c%22c%10c%20c%18c%15c%10%11)C5C35C=%23CC%215C%1914)C(C%17=C8C1(C[N+](C)(C)CC%16%131)C96)C72 (configuration not stated) | 12.5 | 1080 | 2500
2 | CC1C2c3cc4/c5c6c7c8c9c%10c6c4c4c3C3=C6c%11c%12c%13c%14c%15c(c9c9c%16c8c(c8/c(c%17c%18c%19c(c(c%11c%11c%19c%19c%17c8c%16c(c%149)c%19c%13%11)C62)C1C%181C[N+](C)(C)C1)=C\C/C=5)C7)C%10C4C31C[N+](C)(C)CC%12%151 (configuration not stated) | 2.93 | 210 | 200
3 | C[N+]1(C)CC23C4=C5c6c7c8c9c%10c%11c%12c%13c%14c%15c%16c%17c%18c%19c%20c%21c%22c%23c%24c(c6C6%25C[N+](C)(C)CC%236C%21C6C%21=C%20C%18C%18C%20=C%21C(C4c4c%20c(c-%13c(c42)C%12C9C73C1)C%18C%14%17)C6C5%25)c8c1c%10c(c%11%15)c2c%16c%19c%22c2c%241 (configuration not stated) | > 125 | > 25000 | > 25000
4 | CC1C2c3cc4c5c6c3C3=C7c8c9c%10c%11c%12c%13c%14c%15c(c-5c5c%16c%15c%15c%17c%18c%19c%20c%21c%22c(c(c8c8c%22c%22c%20c%18c%18c%15c%14c%11c%18c%22c%108)C72)C1C%211CC=%19C1(C%16%17)C1C[N+](C)(C)CC451)C%13C6C31C[N+](C)(C)CC9%121 (configuration not stated) | 9.04 | 350 | 700
